Values quoted from earlier work, collected in patent US7935730B2, “Method of enhancing reproductive function of mammals by feeding of conjugated linoleic acids” (Cornell Research Foundation, Inc., priority 2006, dated 2011).

How the values were obtained:
young rodents = details: proposed
[1] = in vivo

| SMILES | feed efficiency and growth (young rodents) | effect on milk and body fat [1] |
| --- | --- | --- |
| CCCCCC/C=C/C=C\CCCCCCCC(=O)O [cis-9, trans-11 CLA] | enhance | no effect |
| CCCCC/C=C\C=C\CCCCCCCCC(=O)O [trans-10, cis-12 CLA] | – | reduction |
